Test results as given in patent US20050153288A1, “Methods for identifying gibberellin responsive genes using cultured vegetable cells” (priority 2001, published 2005).
“Also recorded” adds a separate entry of the source. Where two headings read alike, the source gives them in different places.

Legend:
[1] = tested on: CIGR1 gene and CIGR2 gene; assay: Induction of CIGR1 and CIGR2 gene expression by gibberellin in cultured rice cells (Northern blot hybridization); format: cell-based, rice (Oryza sativa cv. Nipponbare); details: for induction of CIGR1 and CIGR2 gene expression by gibberellin species: cultured rice cells treated for ten minutes
Experimental: (§1) (1) Rice cultured cells: The cultured cells of rice were induced from germinating rice seeds (Oryza sativa cv. Nipponbare) on an N6 agar plate containing 1 ppm 2,4-D (2,4-dichlorophenoxyacetic acid). The cells were successively cultured in liquid N6 medium as follows: Once a week, cells of about 1 ml in volume were transferred to 150 ml of N6 medium. Every two weeks, cell clusters were passed through a 20-mesh metal screen to reduce their size. Cells which had been transferred to 30 ml of medium with no screen treatment, and then shake-cultured for four to six days, were used for extraction of RNA for Northern blotting.
(§2) (2) RNA extraction: The extraction of total RNA from cultured cells and green leaves of rice was carried out according to the phenol-SDS method. A Polytron homogenizer was used to homogenize living tissue in the presence of about tenfold or more volume to tissue-volume of phenol (about 90% saturated with water), and a volume of buffer solution (50 mM Tris-HCl pH 9.0, 1% SDS, 50 mM NaCl) equal to this phenol volume. The aqueous phase obtained by centrifugation was then repeatedly extracted with phenol. Total nucleic acid was precipitated by adding 0.6 volume of isopropanol to the extract and stirring the mixture. After dissolving the precipitate in water, a 0.25 volume of 10M LiCl was added, and the mixture was cooled on ice. High molecular weight RNA was collected by centrifugation, washed with 70% ethanol, and then dissolved in a small volume of water to be used as an RNA sample.
[…] Gibberellin (GA3 dissolved in ethanol) was added to make up each final concentration, cells were cultured with shaking for predetermined periods, and then used for RNA extraction. Nipponbare plants grown for three weeks after seeding were sprayed with gibberellin. The third and fourth leaves were collected at certain intervals, and total RNA was extracted. Elicitor treatment was carried out by directly adding aqueous elicitor solution to cultured cells of rice.
(4) Hybridization: RNA for Northern hybridization was denatured using the glyoxal method. 2.7 μl of glyoxal (final concentration, 1M), 1.6 μl of sodium phosphate (pH 7.0, final concentration, 10 mM), and 8 μl of dimethylsulfoxide (final concentration, 50%) were added to 10 μg of total RNA (3.7 μl). The mixture was kept at 50° C. for one hour and then subjected to electrophoresis in 1.4% agarose (10 mM sodium phosphate, pH 7.0). After electrophoresis, RNA was blotted onto a nylon membrane (Biodyne A). The RNA was fixed onto the membrane by treatment for two hours at 80° C. Hybridization was carried out in a mixture of 50% formamide, 0.1% SDS, 0.1 mg/ml salmon sperm DNA, 5×SSPE (0.9 M NaCl, 50 mM sodium phosphate, 5 mM EDTA, pH 7.4), and 5× Denhardt's solution (0.1% bovine serum albumin, 0.1% Ficoll, 0.1% polyvinylpyrrolidone) at 42° C. for one day. The membrane was then washed with 0.1×SSC (15 mM NaCl, 1.5 mM sodium citrate) three times for five minutes each time at room temperature, and twice for 30 minutes each time at 65° C., and then exposed on x-ray film.

[2] = tested on: CIGR1 gene and CIGR2 gene; assay: Elicitor (chitin/chitosan oligomer) induction of CIGR1 and CIGR2 gene expression in cultured rice cells (Northern blot hybridization); format: cell-based, rice (Oryza sativa cv. Nipponbare)
Experimental: as §1, §2
(3) A method for gibberellin treatment of cultured cells and green leaves: The cultured cells were pre-washed several times with 2,4-D-free N6 medium, and then suspended in the same medium and shaken for two hours at 25° C. Gibberellin (GA3 dissolved in ethanol) was added to make up each final concentration, cells were cultured with shaking for predetermined periods, and then used for RNA extraction. Nipponbare plants grown for three weeks after seeding were sprayed with gibberellin. The third and fourth leaves were collected at certain intervals, and total RNA was extracted. […]

[3] = tested on: CIGR1 gene and CIGR2 gene; assay: Effect of protein kinase/phosphatase inhibitors on GA3 induction of CIGR1 and CIGR2 genes in cultured rice cells; format: cell-based; details: inhibitor added ten minutes before treatment; okadaic acid 1 μM, lavendustin A 30 μM, K-252a 20 μM
Experimental: (§3) FIG. 11 depicts photographs representing the effects of protein kinase inhibitors on elicitor response and gibberellin response. The following compounds were added ten minutes before treatment with chitin heptamer (GN7) or gibberellin (GA3). (A): the positive elicitor response control; (B) : okadaic acid (1 μM); (C) : lavendustin A (30 μM); (D) : K-252a (20 μM).
as §1, §2
(§4) (3) A method for gibberellin treatment of cultured cells and green leaves: The cultured cells were pre-washed several times with 2,4-D-free N6 medium, and then suspended in the same medium and shaken for two hours at 25° C. […]

[4] = tested on: α-amylase; details: aleurone layer of wheat, cited from earlier work
[5] = tested on: CIGR1 gene and CIGR2 gene; assay: Effect of protein kinase/phosphatase inhibitors on chitin heptamer induction of CIGR1 and CIGR2 genes in cultured rice cells; format: cell-based; details: inhibitor added ten minutes before treatment; okadaic acid 1 μM, lavendustin A 30 μM, K-252a 20 μM
Experimental: as §3, §1, §2, §4

[6] = tested on: CIGR1 gene and CIGR2 gene; assay: Expression of CIGR1 and CIGR2 genes in green leaves of rice after GA3 spraying; format: in vivo, rice (Nipponbare); details: third and fourth leaves, three weeks after seeding, sprayed with GA3 (50 μM)
Experimental: as §2, §4
In the presence of auxins, cultured plant cells are thought to be in an undifferentiated state. […] Thus, the responses of these two genes to gibberellin were analyzed in the green leaves of rice. […]

[7] = tested on: CHRC, a carotenoid-associated protein in the chromoplasts of cucumber petals; details: cited from earlier work
[8] = tested on: elicitor-responsive genes; details: K-252a pretreatment; cited from earlier work
[9] = ten minutes of GA3 treatment, 2,4-D-free medium

SMILES: C=C1C[C@]23C[C@@]1(O)CC[C@H]2[C@@]12CC[C@H](O)[C@@](C)(C(=O)O1)[C@H]2[C@@H]3C(=O)O [GA1]
- induction of CIGR1 and CIGR2 gene expression by gibberellin species [1]: induced the expression of both genes

SMILES: CC(=O)N[C@H]1[C@H](O[C@@H]([C@H](O)[C@H](C=O)NC(C)=O)[C@H](O)CO)O[C@H](CO)[C@@H](O[C@@H]2O[C@H](CO)[C@@H](O[C@@H]3O[C@H](CO)[C@@H](O[C@@H]4O[C@H](CO)[C@@H](O[C@@H]5O[C@H](CO)[C@@H](O[C@@H]6O[C@H](CO)[C@@H](O)[C@H](O)[C@H]6NC(C)=O)[C@H](O)[C@H]5NC(C)=O)[C@H](O)[C@H]4NC(C)=O)[C@H](O)[C@H]3NC(C)=O)[C@H](O)[C@H]2NC(C)=O)[C@@H]1O [chitin heptamers, N-acetylchitoheptaose]
- response of both genes to chitin oligomers and chitosan oligomers ([2]; chitin monomers to heptamers, tetramer and heptamer chitosan oligomers): strongest responses
- time up to which expression continued to increase ([2]; time-course after chitin heptamer treatment): up to 90 minutes
- increase in mRNA amount of both genes after elicitor treatment ([2]; time-course in cultured rice cells): Significant increases in mRNA amount were observed in both genes five minutes after treatment

SMILES: C=C1C[C@]23C[C@H]1CC[C@H]2[C@]1(C(=O)O)CC[C@H](O)[C@@](C)(C(=O)O)[C@H]1[C@@H]3C(=O)O [GA13]
- induction of CIGR1 and CIGR2 gene expression by gibberellin species [1]: only active type gibberellins induced the expression of both genes

SMILES: C=C1[C@@H](O)[C@@H]2O[C@]3(CC[C@H](/C=C/[C@@H](C)[C@@H]4CC(C)=C[C@@]5(O[C@H](C[C@@](C)(O)C(=O)O)CC[C@H]5O)O4)O3)CC[C@H]2O[C@@H]1[C@@H](O)C[C@H](C)[C@H]1O[C@@]2(CCCCO2)CC[C@H]1C [okadaic acid]
- inhibition of induction of both genes by GA3 [3]: inhibited almost completely
- inhibition of gibberellin's induction of α-amylase [4]: specifically inhibited; also recorded: inhibited by okadaic acid
- inhibition of induction of both genes by chitin heptamer [5]: hardly inhibited

SMILES: C=C1C[C@]23C[C@@]1(O)CC[C@H]2[C@@]12C=C[C@H](O)[C@@](C)(C(=O)O1)[C@H]2[C@@H]3C(=O)O [GA3]
- expression of CIGR1 and CIGR2 genes over time after GA3 treatment ([1]; cells pre-washed with 2,4-D-free medium, two hours of pre-culture in the same medium): Transient expression with a maximum at ten minutes after treatment
- induction of CIGR1 and CIGR2 gene expression by gibberellin species [1]: induced the expression of both genes
- change in gene expression (CIGR1, CIGR2) after GA3 treatment ([1]; suspension-cultured cells in medium comprising 2,4-D, observed for three hours after treatment): no significant change in expression amount was found; also recorded: No change in gene expression was detected
- GA3 concentration at which induction of expression of both genes began to appear [1, 9]: 10^−6 M
- GA3 concentration at which induction reached near saturation [1, 9]: ~10^−4 M
- time of maximum transient expression of both genes after spraying [6]: 30 min
- GA3 concentration required for induction of CHRC [7]: at least 10^−7 M
- GA3 concentration up to which CHRC expression level increased approximately linearly [7]: up to 10^−4 M

SMILES: C=C1C[C@]23C[C@H]1CC[C@H]2[C@@]12CC[C@H](O)[C@@](C)(C(=O)O1)[C@H]2[C@@H]3C(=O)O [GA4]
- induction of CIGR1 and CIGR2 gene expression by gibberellin species [1]: induced the expression of both genes

SMILES: O=C(O)c1cc(N(Cc2ccccc2O)Cc2cc(O)ccc2O)ccc1O [Lavendustin A]
- inhibition of induction of both genes by GA3 [3]: inhibited induction by GA3 almost completely
- inhibition of induction of both genes by chitin heptamer [5]: hardly inhibited

SMILES: C=C1C[C@]23C[C@@]1(O)CC[C@H]2[C@]1(C(=O)O)CCC[C@@](C)(C(=O)O)[C@H]1[C@@H]3C(=O)O [GA17]
- induction of CIGR1 and CIGR2 gene expression by gibberellin species [1]: only active type gibberellins induced the expression of both genes

SMILES: COC(=O)[C@@]1(O)C[C@H]2O[C@]1(C)n1c3ccccc3c3c4c(c5c6ccccc6n2c5c31)C(=O)NC4 [K-252-A]
- inhibition of induction of expression of elicitor-responsive genes [8]: strongly inhibited
- inhibition of induction of both genes by GA3 [3]: almost completely inhibited
- inhibition of gibberellin's induction of α-amylase ([4]; listed as K252a): hardly inhibited induction
- inhibition of induction of both genes by chitin heptamer [5]: almost completely inhibited
